Assay results as given in US20230084515A1, “THERAPEUTIC METHODS AND COMPOSITIONS FOR TREATING CANCER USING BRAF AND/OR MEK INHIBITOR COMBINATION THERAPY” (Vanderbilt University, priority 2020, published 2023).

Columns and labels:
[1] = tested on: SC10; assay: Proliferation assay (population growth curves, DIP rates) in SKMEL5 subline SC10; type: cell-based, human; conditions: for effect of combination with BRAFi on proliferation (DIP rates): combination with PLX4720 8 μM
Experimental: The cells are labeled lentivirally with a fluorescent, nuclear tag (Histone 2B monomeric Red Fluorescent Protein, H2BmRFP from AddGene), flow sorted for H2BmRFP positivity (top 10-15% brightest), and fluorescently counted under drug treatments. Cells are seeded into 96 well plates (1-5,000 cells per well) and drug treatments applied the following day, including DMSO or PBS control (all concentrations contained equal percentage of DMSO or PBS solvent). Images are taken every 8-12 hours with sufficient image alignment (montaging) in order to capture about 25-100 cells per well/treatment (over the course of the experiment, cell counts typically exceed 1,000 in DMSO or low drug concentration wells). Direct measurements of cell counts are made using Cellavista software and Image J macros. The images are filtered through these computer programs to track and label each cell, quantifying the number of cells in each time-stamped frame. Proliferation is platted as log2 normalized growth, using the initial cell count from the first image frame for normalization. Dose-response curves are generated using a 2-fold dilution of single drugs at various concentrations ranked highest to zero (zero containing only the solvent the drug was dissolved in, being either DMSO or H2O); all concentrations contained equal volumes of the solvent used. For combinations with PLX4720 (BRAF inhibitor), 8 μM PLX4720 was used as diluent, and serially diluted with the second drug from highest concentration to lowest. The drug-induced proliferation (DIP) rates (see, Harris, L. A., et al. “An unbiased metric of antiproliferative drug effect in vitro,” Nature Methods', 2016, vol. 13, p. 497-500.) are calculated using the slope of the log2-normalized population curves after 24 hrs. BRAF-mutated melanoma cells (SKMEL5, A375, WM793, SKMEL19, SKMEL28, WM164, WM88, A2058) were grown and cultured in Dulbecco's modified Eagle's medium and Ham's F-12 medium (DMEM:F12, 1:1. Cat #11330-032). Media were obtained from Gibco (Grand Island, N.Y.) and supplemented with 10% FBS, All cells were cultured in CO2, temperature-controlled (37° C.), and humidified incubators. Cells were tested for mycoplasma before use and confirmed negative. Cells were passaged 1-2× per week and maintained as exponentially growing cultures for a maximum of less than 2.0 passages. Unless otherwise indicated, cells were seeded 16-24 h prior to treatment to allow cells to adhere to culture plates. Reagents/drugs were prepared in complete medium immediately prior to adding to cells by replacement. PLX4720 (Cat #S1152) and vemurafenib (Cat #S1267) were obtained from Selleckchem (Houston, Tex.) solubilized in dimethyl sulfoxide (DMSO) at a stock concentration of 10 mM. […]

[2] = tested on: A2058 cells; assay: Proliferation assay (population growth curves, DIP rates) in A2058 cells; type: cell-based, human
Experimental: The cells are labeled lentivirally with a fluorescent, nuclear tag (Histone 2B monomeric Red Fluorescent Protein, H2BmRFP from AddGene), flow sorted for H2BmRFP positivity (top 10-15% brightest), and fluorescently counted under drug treatments. Cells are seeded into 96 well plates (1-5,000 cells per well) and drug treatments applied the following day, including DMSO or PBS control (all concentrations contained equal percentage of DMSO or PBS solvent). Images are taken every 8-12 hours with sufficient image alignment (montaging) in order to capture about 25-100 cells per well/treatment (over the course of the experiment, cell counts typically exceed 1,000 in DMSO or low drug concentration wells). Direct measurements of cell counts are made using Cellavista software and Image J macros. The images are filtered through these computer programs to track and label each cell, quantifying the number of cells in each time-stamped frame. Proliferation is platted as log2 normalized growth, using the initial cell count from the first image frame for normalization. […] The drug-induced proliferation (DIP) rates (see, Harris, L. A., et al. “An unbiased metric of antiproliferative drug effect in vitro,” Nature Methods', 2016, vol. 13, p. 497-500.) are calculated using the slope of the log2-normalized population curves after 24 hrs. […]

COc1cc(C(C)=O)ccc1O [Apocynin]
effect of combination with BRAFi on proliferation (DIP rates) [1]: synergism

c1ccc2c(c1)[I+]c1ccccc1-2 [DPI, Diphenyleneiodonium chloride]
effect of combination with BRAFi on proliferation (DIP rates) [1]: synergism | effect of combination with BRAFi on proliferation (DIP rates) ([2]; DPI 250 nM, BRAFi 8 μM, FIG. 6A): enhancement of NOX-inhibition on the anti-proliferative effects of BRAF-inhibition

CN(C)c1cccc(-c2c3c(=O)n(-c4ccccc4Cl)[nH]c3cc(=O)n2C)c1 [GKT137831]
effect of combination with BRAFi on proliferation (DIP rates) [1]: synergism

CCCS(=O)(=O)Nc1ccc(F)c(C(=O)c2c[nH]c3ncc(Cl)cc23)c1F [PLX4720]
DIP rates under BRAF-inhibition [1]: positive DIP rates | DIP rates under BRAF-inhibition [2]: positive DIP rates
